“Also recorded” adds a separate entry of the source.
What was measured:
[1] = tested on: LPS-induced neutrophil influx into bronchoalveolar lavage fluid of male Wistar rats; assay: LPS-induced lung inflammation model: inhibition of LPS-induced neutrophil influx into bronchoalveolar lavage fluid; type: in vivo, rat; conditions: oral by gavage, BALF 4 hours after end of LPS exposure
Experimental: The anti-inflammatory activity of Examples 1 and 2 and of Prior art compounds A and D was assessed in an in vivo LPS-induced lung inflammation model in rats.
As a measure of the pharmacological potency of the above mentioned compounds the half-maximal effective dose (ED50) in regard to the inhibition of lipopolysaccharide-induced (LPS-induced) neutrophil influx into the bronchoalveolar lavage fluid (BALF) was determined by assessing the dose response relationship. Bacterial endotoxins (lipopolysaccharides [LPS]) are components of the outer bacterial cell membrane which play an important role in the pathogenesis of infections with gram-negative bacteria. It is known that inhalation of such aerosolized LPS induces a dose-dependent increase in neutrophils to lung tissues and airspaces in rats which may be detected by analyzing the amount of neutrophils in the bronchoalveolar lavage fluid (BALF). […]
Determination of neutrophil content of the BALF was performed using an ADVIA 120 blood hemacytometer (Bayer Diagnostics). Neutrophil data were normalised (Positive Control (=LPS treatment alone)=100%, Negative Control (no LPS treatment, administration of “vehicle only”)=0%) and expressed as percent of LPS control. The ED50 was calculated using a nonlinear fit (with the Graph Pad Prism software and a sigmoidal dose response fit). […]

conscious rats = assay: Gastric emptying and gastrointestinal transit in conscious rats (barium sulfate test meal); type: in vivo, rat; conditions: Wistar rats, p.o. 30 min before test meal; for gastric emptying compared to negative control / intestinal transit compared to negative control: all tested doses up to the 30-fold ED50 dose
Experimental: In order to evaluate whether the compounds of the present invention lead to gastrointestinal side effects the compounds of the invention have been administered to rats 30 minutes before the rats were fed with a test meal comprising barium sulfate. After that it was tested whether gastric emptying and/or gastrointestinal transit in these rats was affected by the presence of these compounds.
The effects of the compounds Example 1 and Example 2 on gastric emptying and gastrointestinal transit in conscious rats has been investigated as described below.
Wistar rats of both sexes weighing 130-160 g (ages: male 7 wk, female 8 wk) were used. The animals are obtained from an approved local distributor, a minimum of four days quarantine is required before use, during which time the animals are maintained under routine animal care procedures. Groups of up to 5 animals are housed in cages in a room with controlled temperature and humidity and a light/dark cycle with the lights on from 6 a.m. to 6 p.m. The animals have access to normal rodent chow and water ad libitum. The animals are transported to the laboratory on the day of experimentation.
Gastric emptying as well as small intestinal propulsion are determined using a barium sulfate test meal.
Five rats Crl:WI(Han) of each sex (n=10) were used. The animals were deprived of food 17 h prior to the experiment but allowed free access to water. The drug under investigation (drug was suspended to the concentration of 10 ml/kg body weight in 0.5% Natrosol solution) or the negative control (vehicle alone was given 10 ml/kg body weight) was administered 30 min. (p.o.) before the test meal at doses calculated to be 3-fold, 10-fold or 30-fold the ED50 found in efficacy studies in the rat.
The test meal (suspension of 7.5 g barium sulfate in 10 ml salt-free water) is given orally by gavage at a dose of 2 ml/100 g body weight. Thirty minutes after the administration of the test meal the animals were killed in deep isoflurane anaesthesia by cervical dislocation. The stomach and the intestine were then exposed by laparatomy and removed.
The removed stomach was weighed, then incised, the contents removed and the empty stomach is weighed again.
The length of gut traversed with barium sulfate in relation to the whole length of the gut is determined by direct measurements using a ruler.
The gastric content was calculated from the weight difference between the filled and empty stomach and normalized to 100 g body weight. Thus, an increase in weight difference indicated an impaired gastric emptying, whereas a decrease in weight difference indicated an enhanced gastric emptying.
The length of gut traversed with barium sulphate (as judged by visual inspection) in relation to the whole length of the gut (from the pylorus to the rectum) is determined by direct measurements using a ruler.
Intestinal transit is calculated as the percentage movement of barium sulphate in the intestine in relation to the whole length of the gut. Consequently an increased intestinal transit length indicated an accelerated intestinal transit whereas a decreased intestinal transit length indicated decelerated intestinal transit.
Data are expressed as mean±standard deviation (SD). For each dose, comparisons were performed using an analysis of variance (ANOVA) and a post hoc Dunnett test to compare the various groups to the controls when the ANOVA was significant. p<0.05 was considered significant.

Structure (SMILES)	ED50 (inhibition of LPS-induced neutrophil influx into BALF) [1] [mg/kg body weight]	gastric emptying (weight difference per body weight) compared to negative control (conscious rats; 3-fold ED50 dose)	gastric emptying (weight difference per body weight) compared to negative control (conscious rats; 10-fold ED50 dose)	gastric emptying (weight difference per body weight) compared to negative control (conscious rats; 30-fold ED50 dose)	gastric emptying compared to negative control (conscious rats)	intestinal transit compared to negative control (conscious rats)
[O-][S+]1CCc2nc(N3CCC(c4cccc(Cl)c4)CC3)nc(NC3(CO)CC3)c21 (stereo not drawn) [Prior art compound D]	6.66					
[O-][S+]1CCc2nc(N3CCC(c4ccc(Cl)cc4)CC3)nc(NC3(CO)CCC3)c21 (single isomer, unassigned) [Example 1]		no relevant differences	no relevant differences	only a very moderate enhancement of the weight difference per body weight	neither showed a substantially enhanced or impaired gastric emptying	no significant differences
[O-][S+]1CCc2nc(N3CCC(c4ncc(Cl)cn4)CC3)nc(NC3(CO)CCC3)c21 (single isomer, unassigned) [Example 2]					neither showed a substantially enhanced or impaired gastric emptying; also recorded: no relevant differences	no relevant differences
[O-][S+]1CCc2nc(N3CCC(c4ccc(Cl)cc4)CC3)nc(NC3(CO)CC3)c21 (stereo not drawn) [Prior art compound A]	1.13					

Reference: patent publication US9802954B2, “Piperidino-dihydrothienopyrimidine sulfoxides and their use for treating COPD and asthma” (Boehringer Ingelheim International GmbH, priority 2011, dated 2017)
